Experimental data reported in US12240849B2, “Nitrogen-containing spiro derivative as RET inhibitor” (GUANGZHOU BAIYUNSHAN PHARMACEUTICAL HOLDINGS CO., LTD. …, priority 2019, dated 2025).
Where two headings read alike, the source gives them in different places.

Columns and labels:
V804L mutant RET = biological target: T1, V804L mutant RET (Homo sapiens, UniProt P07949, V804L); assay: 33P isotope-labeled kinase activity test, V804L mutant RET; assay type: biochemical; settings: 33P-ATP at Km concentration
T1 construct: purchased Reaction Biology Corp
Experimental: (§1) ^33P isotope-labeled kinase activity test (Reaction Biology Corp) was used to determine IC50 value so as to evaluate an inhibitory ability of a test compound on human wild-type, V804M and V804L mutant RET.
(§2) Buffer solution condition: 20 mM 4-(2-hydroxyethyl)piperazine-1-ethanesulfonic acid (Hepes) (pH 7.5), 10 mM MgCl2, 1 mM 1,2-bis[2-[bis(carboxymethyl)amino]ethoxy]ethane (EGTA), 0.02% polyoxyethylene lauryl ether (Brij35), 0.02 mg/mL bovine serum albumin (BSA), 0.1 mM of Na3VO4, 2 mM dithiothreitol (DTT) and 1% DMSO.
(§3) Compound treatment: the compound to be tested was dissolved in 100% DMSO, and then the obtained solution was continuously diluted with DMSO by using Integra Viaflo Assist until a specific concentration was obtained.
(§4) Test procedures: a substrate was dissolved in the newly prepared buffer solution, a kinase to be tested was added therein, and the obtained solution was gently and evenly mixed. DMSO solution in which a compound to be test was dissolved was added in the above evenly mixed reaction solution by using an acoustic technology (Echo 550), and then incubated for 20 minutes at room temperature. […] Kinase activity data was expressed by comparing the kinase activity of the compound to be tested with the kinase activity of a blank group (containing only DMSO). The IC50 value was obtained by curve fitting with Prism4 software (GraphPad).

[1] = Body weight of mice in Ba/F3 KIF5B-RET-V804L xenograft experiment; assay type: in vivo, NPSG mice; settings: 10 mg/kg p.o. BID, Ba/F3 KIF5B-RET-V804L model, in g (unit assumed)
Experimental: (§5) 4) After inoculation, the volume and weight of tumors were measured once a week. When the average tumor volume reached 124.5 mm^3, mice with the tumor volume between 82.9 mm^3 and 145.4 mm^3 were selected and randomly grouped according to the volume and weight of tumors with 6 mice in each group. The administration was started immediately after the grouping. The start date of the administration was recorded as day 0.
(§6) 5) After the administration was started, the mice were continuously administrated for 9 days, and the body weight and tumor volume of the mice were measured on day 3, day 6, and day 9.

human wild-type RET = biological target: T2, human wild-type RET (Homo sapiens, UniProt P07949); assay: 33P isotope-labeled kinase activity test, wild-type RET; assay type: biochemical; settings: 33P-ATP at Km concentration
T2 construct: purchased Reaction Biology Corp
Experimental: as §1, §2, §3, §4

[2] = tested on: Ba/F3 KIF5B-RET tumor cell xenograft; assay: Efficacy in engineered cell line Ba/F3 KIF5B-RET xenograft model; assay type: in vivo, NPSG mice; settings: for TGI: TGI = 1-ΔT/ΔC; for Tumor Volume on Day 10 / Tumor Volume on Day 0: average ± standard error
Text: To verify efficacy of drugs to be tested alone on the engineered cell line Ba/F3 KIF5B-RET xenograft model of NPSG mice.
1) Ba/F3 KIF5B-RET cells were resuscitated and cultured in vitro to obtain 4×10^7 cells.
2) Sixty 6-8 week old female NPSG mice were adaptively fed for one week and weighed.
3) The Ba/F3 KIF5B-RET cells were subcutaneously inoculated on right scapula of mice according to the inoculation conditions obtained in the pre-test (see Table 7) to establish the Ba/F3 KIF5B-RET tumor cell xenograft model of NPSG mice.
as §5, with “104” for “124.5”, “mice” for “mice with the tumor volume between 82.9 mm^3 and 145.4 mm^3”, “were” for “were selected and”
(§7) 5) After administration was started, the body weight and tumor volume of the mice were measured respectively on the day 0, day 3, day 6, and day 10.
6) For the experiment of two groups, a T-Test analysis method was used. For a comparison of three or more groups, One-Way ANOVA was used for analysis. For comparing potential synergistic effects, Two-Way ANOVA was used for analysis. All data were analyzed by using SPSS 17.0. A p value less than 0.05 was considered to be a significant difference, and a p value less than 0.01 was considered to be a very significant difference.

[3] = Pharmacokinetic evaluation in mice; assay type: in vivo, CD-1 mice (male); settings: male, mouse, plasma, CD-1 mice; for bioavailability: read-out: Bioavailability F; for AUC: read-out: Integrated Concentration AUC; for clearance: read-out: Clearance Rate; for half-life: read-out: Half-life T1/2 (converted)
Text: Experiment objective: to test the pharmacokinetic of compound in mice
Experiment material: CD-1 mice (male)
Experiment operations: the pharmacokinetic characteristics of rodents after intravenous injection and oral administration of the compounds were obtained by using a standard scheme. In the experiment, candidate compounds were formulated into clear solutions, and mice were administrated by a single intravenous injection and oral administration. The solvent of the intravenous injection and oral administration was 10% PEG400 (polyethylene glycol 400)+90%(10% hydroxypropyl-β-cyclodextrin). The whole blood samples were collected within 24 hours. All the blood samples were added respectively into labeled plastic centrifuge tubes in which 0.5 M K2-EDTA anticoagulants were pre-added. The blood samples were collected, and centrifuged at 3,000 g for 10 min at 4° C. The supernatant plasma was collected by absorbing and quickly placed in dry ice to keep at −20° C. or lower. Blood concentrations were quantitatively analyzed by using an LC-MS/MS analysis method, and pharmacokinetic parameters, such as peak concentration, peak time, clearance rate, half-life, area under drug concentration-time curve, bioavailability, etc. were calculated.

[4] = tested on: Ba/F3 KIF5B-RET-V804L tumor cell xenograft; assay: Efficacy in Ba/F3 KIF5B-RET-V804L tumor cell xenograft model; assay type: in vivo, NPSG mice
Text: 1) Ba/F3 KIF5B-RET-V804L cells were resuscitated and cultured in vitro to obtain 5×10^7 cells.
2) Forty-five 6-8 week old female mice were adaptively fed for 1 week and weighed.
3) Ba/F3 KIF5B-RET-V804L tumor cells were subcutaneously inoculated into the right scapula position of the mice so as to establish the engineered cell line Ba/F3 KIF5B3-RET-V804L tumor cell xenograft model. Inoculation conditions were as follows: (see Table 3)
as §5, §6
6) Data statistics were analyzed by one-way ANOVA. Variance homogeneity difference of data was firstly detected. If there was no difference in the variance homogeneity, an LSD method was used for analysis; and if there was a difference in the variance homogeneity, Dunnett's T3 was selected for data analysis. All data were analyzed by using SPSS 17.0. A p value less than 0.05 was considered a significant difference.

V804M mutant RET = biological target: T3, V804M mutant RET (Homo sapiens, UniProt P07949, V804M); assay: 33P isotope-labeled kinase activity test, V804M mutant RET; assay type: biochemical; settings: 33P-ATP at Km concentration
T3 construct: purchased Reaction Biology Corp
Experimental: as §1, §2, §3, §4

[5] = Body weight of mice in Ba/F3 KIF5B-RET xenograft experiment; assay type: in vivo, NPSG mice; settings: Ba/F3 KIF5B-RET model, in g (unit assumed)
Experimental: as §5, with “104” for “124.5”, “mice” for “mice with the tumor volume between 82.9 mm^3 and 145.4 mm^3”, “were” for “were selected and”
as §7

[6] = 10 mg/kg, oral administration 10 mpk
[7] = iv, 2 mg/kg, injection administration 2 mpk

T2 sequence (P07949 29-1114): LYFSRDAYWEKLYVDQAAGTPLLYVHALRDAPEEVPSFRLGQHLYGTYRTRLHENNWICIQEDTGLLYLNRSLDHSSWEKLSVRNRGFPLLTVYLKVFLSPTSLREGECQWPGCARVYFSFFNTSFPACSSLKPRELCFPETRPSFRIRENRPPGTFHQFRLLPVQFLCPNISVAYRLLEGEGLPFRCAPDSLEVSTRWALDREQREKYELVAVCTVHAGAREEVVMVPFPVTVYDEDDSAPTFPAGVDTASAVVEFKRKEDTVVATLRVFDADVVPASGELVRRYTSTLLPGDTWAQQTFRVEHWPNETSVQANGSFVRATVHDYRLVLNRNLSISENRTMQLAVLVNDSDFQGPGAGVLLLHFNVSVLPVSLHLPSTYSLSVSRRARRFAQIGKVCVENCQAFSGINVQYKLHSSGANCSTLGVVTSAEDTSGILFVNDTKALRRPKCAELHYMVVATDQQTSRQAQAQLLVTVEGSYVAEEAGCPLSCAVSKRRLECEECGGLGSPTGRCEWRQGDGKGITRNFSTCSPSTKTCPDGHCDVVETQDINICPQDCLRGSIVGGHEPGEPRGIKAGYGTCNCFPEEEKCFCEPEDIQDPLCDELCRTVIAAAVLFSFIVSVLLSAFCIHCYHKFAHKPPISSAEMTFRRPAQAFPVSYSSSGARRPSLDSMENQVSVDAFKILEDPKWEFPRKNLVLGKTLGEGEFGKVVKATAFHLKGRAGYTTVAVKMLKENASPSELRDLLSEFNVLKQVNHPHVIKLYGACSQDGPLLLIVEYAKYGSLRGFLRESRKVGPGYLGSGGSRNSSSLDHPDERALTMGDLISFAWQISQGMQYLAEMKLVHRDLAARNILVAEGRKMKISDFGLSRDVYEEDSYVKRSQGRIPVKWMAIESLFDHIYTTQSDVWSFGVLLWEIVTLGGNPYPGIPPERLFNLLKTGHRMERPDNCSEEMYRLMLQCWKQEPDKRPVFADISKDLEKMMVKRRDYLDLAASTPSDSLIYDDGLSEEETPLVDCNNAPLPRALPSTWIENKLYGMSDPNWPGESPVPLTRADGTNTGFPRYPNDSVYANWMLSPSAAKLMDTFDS
T1 sequence (P07949 29-1114 V804L): as the sequence (P07949 29-1114) above, with V776L counted along it
T3 sequence (P07949 29-1114 V804M): as the sequence (P07949 29-1114) above, with V776M counted along it

IC50 (human wild-type RET) [nM]	bioavailability [3, 6] [%]	AUC [3, 6] [µM·h]	clearance [3, 7] [mL/min/kg]	half-life [3, 7] [h]	AUC [3, 7] [µM·h]	SMILES	Body weight ([1]; day 0)	Body weight ([1]; day 3)	Body weight ([1]; day 6)	Body weight ([1]; day 9)	ΔVAC ([2]; 10 mg/kg p.o. BID Day 0-Day 10) [%]	ΔVAC ([4]; 10 mg/kg p.o. BID Day 0-Day 9) [%]	Body weight ([5]; day 0, 10 mg/kg p.o. BID)	Body weight ([5]; day 3, 10 mg/kg p.o. BID)	Body weight ([5]; day 6, 10 mg/kg p.o. BID)	Body weight ([5]; day 10, 10 mg/kg p.o. BID)	further results
1.29	59.7	27.7	6.55	2.56	9.3	Cc1cc(Nc2cc(C)[nH]n2)nc(N2CCC3(CC2)OCCN(C(C)c2ccc(-n4cc(F)cn4)nc2)C3=O)n1 (stereo not drawn) [Compound 018]	18.6 ± 0.49	18.8 ± 0.48	18.6 ± 0.87	19 ± 0.64	10	−7	17.7 ± 0.47	18.2 ± 0.51	18.5 ± 0.57	17.7 ± 0.86	IC50 (V804L mutant RET): 1.23 nM; TGI ([2]; 10 mg/kg p.o. BID Day 0-Day 10): 90%; Tumor Volume on Day 10 ([2]; 10 mg/kg p.o. BID Day 0-Day 10): 205.1 ± 29.87 mm^3; Tumor Volume on Day 0 ([2]; 10 mg/kg p.o. BID): 106.3 ± 7.14 mm^3; ΔVAC ([2]; 20 mg/kg p.o. BID Day 0-Day 10): −7%; TGI ([2]; 20 mg/kg p.o. BID Day 0-Day 10): 107%; Tumor Volume on Day 10 ([2]; 20 mg/kg p.o. BID Day 0-Day 10): 32.8 ± 6.81 mm^3; Tumor Volume on Day 0 ([2]; 20 mg/kg p.o. BID): 102.2 ± 7.09 mm^3; TGI ([4]; 10 mg/kg p.o. BID Day 0-Day 9, TGI = 1-ΔT/ΔC): 107%; Tumor Volume on Day 9 ([4]; 10 mg/kg p.o. BID Day 0-Day 9, average ± standard error): 75.5 ± 7.11 mm^3; Tumor Volume on Day 0 ([4]; 10 mg/kg p.o. BID, average ± standard error): 125 ± 3.96 mm^3; IC50 (V804M mutant RET): 1.97 nM; Body weight ([5]; day 0, 20 mg/kg p.o. BID): 17.6 ± 0.58; Body weight ([5]; day 3, 20 mg/kg p.o. BID): 18.1 ± 0.56; Body weight ([5]; day 6, 20 mg/kg p.o. BID): 18.3 ± 0.53; Body weight ([5]; day 10, 20 mg/kg p.o. BID): 18.5 ± 0.63
	53.7	49.6	1.65	2.53	16.4	Cc1cc(Nc2cc(C)nc(C3CCC4(CC3)OCCN(C(C)c3ccc(-n5cc(F)cn5)nc3)C4=O)n2)[nH]n1 (single isomer, unassigned) [Compound 014]	19.5 ± 0.53	20.3 ± 0.72	20.5 ± 0.72	20.3 ± 0.84	1	−6	18 ± 0.57	18.5 ± 0.47	18.5 ± 0.75	18.6 ± 0.62	
73.9						Cc1cc(Nc2cc(C)nc(N3CCC4(CC3)CCN(C(C)c3ccc(-n5cc(F)cn5)nc3)C4)n2)[nH]n1 (stereo not drawn) [Compound 003-h]											
